According to US20220340597A1, “HEXAHYDRO-1H-PYRAZINO[1,2-A]PYRAZINE COMPOUNDS FOR THE TREATMENT OF AUTOIMMUNE DISEASE” (Hoffmann-La Roche Inc., priority 2019, published 2022):

Target: T1, hERG channel (Homo sapiens, UniProt Q12809)
T1 construct: expressed in transfected cells; host or cells: CHO (Chinese hamster ovary), CHOhERG
Assay: hERG channel inhibition assay (patch-clamp, CHOhERG cells)
Type: cell-based
Details: for IC50 / IC20: CHOhERG cells, whole-cell patch-clamp; for IC20: human, CHO cells stably expressing hERG (CHOhERG); for hERG IC20/TLR7 IC50 / hERG IC20/TLR8 IC50 / hERG IC20/TLR9 IC50: safety ratio
Method: hERG Channel Inhibition Assay:
The hERG K^+ channels were cloned in humans and stably expressed in a CHO (Chinese hamster ovary) cell line. CHOhERG cells were used for patch-clamp (voltage-clamp, whole-cell) experiments. Cells were stimulated by a voltage pattern to activate hERG channels and conduct IKhERG currents (rapid delayed outward rectifier potassium current of the hERG channel). After the cells were stabilized for a few minutes, the amplitude and kinetics of IKhERG were recorded at a stimulation frequency of 0.1 Hz (6 bpm). Thereafter, the test compound was added to the preparation at increasing concentrations. For each concentration, an attempt was made to reach a steady-state effect, usually, this was achieved within 3-10 min at which time the next highest concentration was applied. The amplitude and kinetics of IKhERG are recorded in each concentration of the drug which were compared to the control values (taken as 100%). (references: Redfern W S, Carlsson L, Davis A S, Lynch W G, MacKenzie I, Palethorpe S, Siegl P K, Strang I, Sullivan A T, Wallis R, Camm A J, Hammond T G. 2003; Relationships between preclinical cardiac electrophysiology, clinical QT interval prolongation and torsade de pointes for a broad range of drugs: evidence for a provisional safety margin in drug development. Cardiovasc. Res. 58:32-45, Sanguinetti M C, Tristani-Firouzi M. 2006; hERG potassium channels and cardiac arrhythmia. Nature 440:463-469, Webster R, Leishman D, Walker D. 2002; Towards a drug concentration effect relationship for QT prolongation and torsades de pointes. Curr. Opin. Drug Discov. Devel. 5:116-26).
The calculation of hERG IC20/TLR7/8/9 IC50 below serves as early selectivity index to assess hERG liability.

T1 sequence (Q12809 whole entry): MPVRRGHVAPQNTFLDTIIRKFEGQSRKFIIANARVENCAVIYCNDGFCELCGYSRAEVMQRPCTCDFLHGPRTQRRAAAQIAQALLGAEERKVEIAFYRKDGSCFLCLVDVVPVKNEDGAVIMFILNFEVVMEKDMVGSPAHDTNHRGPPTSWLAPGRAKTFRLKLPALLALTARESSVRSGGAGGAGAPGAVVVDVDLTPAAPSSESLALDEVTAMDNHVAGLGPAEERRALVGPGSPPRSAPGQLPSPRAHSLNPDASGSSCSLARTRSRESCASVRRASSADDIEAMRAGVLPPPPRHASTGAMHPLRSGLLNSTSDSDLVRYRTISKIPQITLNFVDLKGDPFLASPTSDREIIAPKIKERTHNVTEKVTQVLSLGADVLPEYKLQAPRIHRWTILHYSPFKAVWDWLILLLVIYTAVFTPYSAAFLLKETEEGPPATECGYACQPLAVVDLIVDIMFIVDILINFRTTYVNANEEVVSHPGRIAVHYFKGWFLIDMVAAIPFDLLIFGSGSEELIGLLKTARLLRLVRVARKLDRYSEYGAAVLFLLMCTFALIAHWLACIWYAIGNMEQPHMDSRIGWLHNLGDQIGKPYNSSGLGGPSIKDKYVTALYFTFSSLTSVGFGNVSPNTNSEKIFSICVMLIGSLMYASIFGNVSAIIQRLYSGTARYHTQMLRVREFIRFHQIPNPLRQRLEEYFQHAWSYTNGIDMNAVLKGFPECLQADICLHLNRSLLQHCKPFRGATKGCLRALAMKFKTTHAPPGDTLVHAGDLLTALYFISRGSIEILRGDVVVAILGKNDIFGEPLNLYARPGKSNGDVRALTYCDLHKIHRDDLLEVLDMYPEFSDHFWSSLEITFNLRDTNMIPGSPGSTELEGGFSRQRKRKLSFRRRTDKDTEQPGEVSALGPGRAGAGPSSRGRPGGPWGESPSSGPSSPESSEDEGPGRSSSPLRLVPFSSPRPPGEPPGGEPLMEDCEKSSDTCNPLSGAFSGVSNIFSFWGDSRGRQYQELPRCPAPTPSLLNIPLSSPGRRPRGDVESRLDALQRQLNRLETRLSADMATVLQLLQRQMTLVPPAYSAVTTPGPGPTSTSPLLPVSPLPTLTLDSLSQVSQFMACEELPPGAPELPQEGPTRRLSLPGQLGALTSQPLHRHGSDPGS

Row | Structure (SMILES) | IC50 [µM] | IC20 [µM] | hERG IC20/TLR7 IC50 | hERG IC20/TLR8 IC50 | hERG IC20/TLR9 IC50
1 | CO[C@H]1CN(c2ccc(CCN3CCN4[C@@H](C3)CN(c3ccc(C#N)c5ncccc35)C[C@H]4C)cn2)C[C@@H]1N [Example 25, 5-[(4R,9aS)-8-[2-[6-[(3S,4S)-3-amino-4-methoxy-pyrrolidin-1-yl]-3-pyridyl]ethyl]-4-methyl-3,4,6,7,9,9a-hexahydro-1H-pyrazino[1,2-a]pyrazin-2-yl]quinoline-8-carbonitrile] | > 20 | > 10 | >769 | >400 | >156
2 | CO[C@@H]1CN(c2ccnc(N3CCN4[C@@H](C3)CN(c3ccc(C#N)c5ncccc35)C[C@H]4C)n2)C[C@H]1N [Example 37, 5-[(4R,9aR)-8-[4-[(3R,4R)-3-amino-4-methoxy-pyrrolidin-1-yl]pyrimidin-2-yl]-4-methyl-3,4,6,7,9,9a-hexahydro-1H-pyrazino[1,2-a]pyrazin-2-yl]quinoline-8-carbonitrile] | > 10 | 4.5 | 214 | 173 | 73
3 | C[C@@H]1CN(c2ccc(C#N)c3ncccc23)C[C@@H]2CN(c3nccc(N4CC(N)C4)n3)CCN21 [Example 39, 5-[(4R,9aR)-8-[4-(3-aminoazetidin-1-yl)pyrimidin-2-yl]-4-methyl-3,4,6,7,9,9a-hexahydro-1H-pyrazino[1,2-a]pyrazin-2-yl]quinoline-8-carbonitrile] | > 10 | 5 | 238 | 294 | 53
4 | [2H]c1ccc2c(N3C[C@@H]4CN(c5ccc(N6CC7CCC(C6)N7)nc5)CCN4[C@@H](C)C3)ccc(C#N)c2n1 [Example 112, 5-[(4S,9aR)-8-[6-(3,8-diazabicyclo[3.2.1]octan-3-yl)-3-pyridyl]-4-methyl-3,4,6,7,9,9a-hexahydro-1H-pyrazino[1,2-a]pyrazin-2-yl]-2-deuterio-quinoline-8-carbonitrile] | > 20 | > 10 | >2500 | >1000 | >122
5 | CO[C@@H]1CN(c2nc(C)cc(N3CCN4[C@@H](C3)CN(c3ccc(C#N)c5ncccc35)C[C@H]4C)n2)C[C@H]1N [Example 45, 5-[(4R,9aR)-8-[2-[(3R,4R)-3-amino-4-methoxy-pyrrolidin-1-yl]-6-methyl-pyrimidin-4-yl]-4-methyl-3,4,6,7,9,9a-hexahydro-1H-pyrazino[1,2-a]pyrazin-2-yl]quinoline-8-carbonitrile] | > 20 | > 10 | >556 | >357 | >124
6 | [2H]c1ccc2c(N3C[C@@H]4CN(c5ccc(N6C[C@@H](N)[C@H](OC)C6)nc5)CCN4[C@@H](C)C3)ccc(C#N)c2n1 [Example 115, 5-[(4S,9aR)-8-[6-[(3R,4R)-3-amino-4-methoxy-pyrrolidin-1-yl]-3-pyridyl]-4-methyl-3,4,6,7,9,9a-hexahydro-1H-pyrazino[1,2-a]pyrazin-2-yl]-2-deuterio-quinoline-8-carbonitrile] | > 20 | > 10 | >1000 | >588 | >71
7 | [2H]c1ccc2c(N3C[C@@H]4CN(c5ncc(N6C[C@@H]7C[C@H]6CN7)cc5C)CCN4[C@@H](C)C3)ccc(C#N)c2n1 [Example 111, 5-[(4S,9aR)-8-[5-[(1S,4S)-2,5-diazabicyclo[2.2.1]heptan-2-yl]-3-methyl-2-pyridyl]-4-methyl-3,4,6,7,9,9a-hexahydro-1H-pyrazino[1,2-a]pyrazin-2-yl]-2-deuterio-quinoline-8-carbonitrile] | > 20 | > 10 | >1666 | >2000 | >84
8 | CO[C@@H]1CN(c2nccc(N3CCN4[C@@H](C3)CN(c3ccc(C#N)c5ncccc35)C[C@H]4C)n2)C[C@H]1N [Example 36, 5-[(4R,9aR)-8-[2-[(3R,4R)-3-amino-4-methoxy-pyrrolidin-1-yl]pyrimidin-4-yl]-4-methyl-3,4,6,7,9,9a-hexahydro-1H-pyrazino[1,2-a]pyrazin-2-yl]quinoline-8-carbonitrile] | > 20 | 5.6 | 431 | 373 | 82
9 | [2H]c1ccc2c(N3C[C@@H]4CN(Cc5ccc(N6CC(C)(N)C6)nc5C)CCN4[C@H](C)C3)ccc(C#N)c2n1 [Example 79, 5-[(4R,9aS)-8-[[6-(3-amino-3-methyl-azetidin-1-yl)-2-methyl-3-pyridyl]methyl]-4-methyl-3,4,6,7,9,9a-hexahydro-1H-pyrazino[1,2-a]pyrazin-2-yl]-2-deuterio-quinoline-8-carbonitrile] | > 20 | > 10 | >526 | >1666 | >217
10 | Cc1cc(N2CCN3[C@@H](C2)CN(c2ccc(C#N)c4ncccc24)C[C@H]3C)nc(N2CC(C)(N)C2)n1 [Example 55, 5-[(4R,9aR)-8-[2-(3-amino-3-methyl-azetidin-1-yl)-6-methyl-pyrimidin-4-yl]-4-methyl-3,4,6,7,9,9a-hexahydro-1H-pyrazino[1,2-a]pyrazin-2-yl]quinoline-8-carbonitrile] | > 20 | > 10 | >680 | >249 | >209
11 | Cc1cc(N2CCNCC2)ncc1N1CCN2CCN(c3ccc(C#N)c4ncccc34)CC2C1 (stereo not shown) [Example 38, 5-[2-(4-methyl-6-piperazin-1-yl-3-pyridyl)-3,4,6,7,9,9a-hexahydro-1H-pyrazino[1,2-a]pyrazin-8-yl]quinoline-8-carbonitrile] | > 20 | > 10 | >5000 | >1250 | >108
12 | C[C@@H]1CN(c2ccc(C#N)c3ncccc23)C[C@@H]2CN(c3ccnc(N4CC(N)C4)c3)CCN21 [Example 41, 5-[(4R,9aS)-8-[2-(3-aminoazetidin-1-yl)-4-pyridyl]-4-methyl-3,4,6,7,9,9a-hexahydro-1H-pyrazino[1,2-a]pyrazin-2-yl]quinoline-8-carbonitrile] | > 20 | 9.64 | 275 | 1377 | 214
13 | C[C@@H]1CN(c2ccc(C#N)c3ncccc23)C[C@@H]2CN(Cc3ccc(N4CCNCC4)nc3)CCN21 [Example 8, 5-[(4R,9aS)-4-methyl-8-[(6-piperazin-1-yl-3-pyridyl)methyl]-3,4,6,7,9,9a-hexahydro-1H-pyrazino[1,2-a]pyrazin-2-yl]quinoline-8-carbonitrile] | > 20 | 8.63 | 392 | 166 | 210
14 | C[C@@H]1CN(c2ccc(C#N)c3ncccc23)C[C@@H]2CN(c3nccc(N4CCNCC4)n3)CCN21 [Example 30, 5-[(4R,9aR)-4-methyl-8-(4-piperazin-1-ylpyrimidin-2-yl)-3,4,6,7,9,9a-hexahydro-1H-pyrazino[1,2-a]pyrazin-2-yl]quinoline-8-carbonitrile] | > 10 | 4.53 | 283 | 216 | 63
15 | [2H]c1ccc2c(N3C[C@@H]4CN(c5ncc(N6CC(C)(N)C6)cc5C)CCN4[C@@H](C)C3)ccc(C#N)c2n1 [Example 118, 5-[(4S,9aR)-8-[5-(3-amino-3-methyl-azetidin-1-yl)-3-methyl-2-pyridyl]-4-methyl-3,4,6,7,9,9a-hexahydro-1H-pyrazino[1,2-a]pyrazin-2-yl]-2-deuterio-quinoline-8-carbonitrile] | > 20 | 7.66 | 1914 | 1276 | 51
16 | [2H]c1ccc2c(N3C[C@@H]4CN(c5ccc6c(n5)CCNC6)CCN4[C@@H](C)C3)ccc(C#N)c2n1 [Example 121, 5-[(4S,9aR)-4-methyl-8-(5,6,7,8-tetrahydro-1,6-naphthyridin-2-yl)-3,4,6,7,9,9a-hexahydro-1H-pyrazino[1,2-a]pyrazin-2-yl]-2-deuterio-quinoline-8-carbonitrile] | > 20 | > 10 | >2000 | >10000 | >117
17 | C[C@@H]1CN(c2ccc(C#N)c3ncccc23)C[C@@H]2CN(c3cc(N4CCNCC4)ccn3)CCN21 [Example 34, 5-[(4R,9aR)-4-methyl-8-(4-piperazin-1-yl-2-pyridyl)-3,4,6,7,9,9a-hexahydro-1H-pyrazino[1,2-a]pyrazin-2-yl]quinoline-8-carbonitrile] | > 10 | 4.74 | 237 | 339 | 113
